Source: patent publication US12168678B2, “Heme sequesting peptides and uses therefor” (Board of Regents, The University of Texas System, priority 2019, dated 2024)
Counter-ions that a name gives are not always drawn.

Experiments:
H1299 cells = assay: Colony formation assay; assay type: cell-based, human; details: for effect of heme addition on colony formation: 10 μM heme add-back; for effect of iron addition on colony formation: 50 μM ferric chloride; for colony formation: 6 days, 0.5 mM succinyl acetone, 10 μM HSPs, 50 μM DFX, 10 μM SnPP
Procedure: (§1) Cell proliferation was measured by detecting the luciferase activity in live cells and by using a hemocytometer. Cell migration and invasion assays were carried out with BD Falcon cell culture inserts (Corning Life Sciences) and the manufacturer's cell migration, chemotaxis, and invasion assay protocols. For the colony formation assay, 5000 NSCLC cells were seeded in every well in 6-well tissue culture plates in triplicates. Cells were treated with 0.5 mM succinyl acetone (Sigma Aldrich), 10 μM HSPs, 50 μM deferoxamine mesylate (DFX), 10 μM zinc (II) protoporphyrin IX, 10 μM tin (IV) protoporphyrin IX, or 50 μM ferric chloride for 6 days. For heme add-back experiments, 10 μM heme was included. Medium was changed every 3 days. After 6 days of treatment, cells were fixed with 70% ethanol and stained with 0.5% crystal violet. Images were acquired by using Carestream Gel Logic GL-112 imaging system.

A549 cells = assay: Colony formation assay; assay type: cell-based, human; details: for effect of heme addition on colony formation: 10 μM heme add-back; for effect of iron addition on colony formation: 50 μM ferric chloride; for colony formation: 6 days, 0.5 mM succinyl acetone, 10 μM HSPs, 50 μM DFX, 10 μM SnPP
Procedure: as §1

[1] = tested on: 5-aminolevulic synthase (ALAS1); details: previous studies, non-erythroid cells; cited from earlier work
[2] = references 55, 56; cited from earlier work
A549 NSCLC cells [3] = assay: Cell invasion assay (Matrigel invasion chambers); assay type: cell-based, human; details: 10 μM heme
[4] = tested on: H1299 NSCLC lung tumor xenografts; assay type: in vivo; details: SA 50 mg/kg I.V. every 3 days, from 4 days after implantation
H1299 NSCLC cells [5] = assay: Cell migration assay (Transwell inserts); assay type: cell-based, human; details: heme add-back 10 μM, b23 prints 10 mM
Procedure: as §1

A549 NSCLC cells [6] = assay: Cell migration assay (Transwell inserts); assay type: cell-based, human; details: 10 μM heme
Procedure: as §1

H1299 NSCLC cells [7] = assay: Cell invasion assay (Matrigel invasion chambers); assay type: cell-based, human; details: heme add-back 10 μM, b23 prints 10 mM
heme oxygenases = details: reference 51; cited from earlier work

Compound | effect of heme addition on colony formation (H1299 cells) | effect of iron addition on colony formation (H1299 cells) | colony formation (H1299 cells) | effect of heme addition on colony formation (A549 cells) | effect of iron addition on colony formation (A549 cells) | colony formation (A549 cells) | inhibition of heme biosynthesis [1] | toxicity to animals [2] | effect of heme addition on reduced invasion (A549 NSCLC cells [3]) | suppression of lung tumors (BLI) [4] | effect of heme addition on reduced migration (H1299 NSCLC cells [5]) | effect of heme addition on reduced migration (A549 NSCLC cells [6]) | effect of heme addition on reduced invasion (H1299 NSCLC cells [7]) | inhibition of the activities of heme oxygenases (heme oxygenases)
CC(=O)N(O)CCCCCNC(=O)CCC(=O)N(O)CCCCCNC(=O)CCC(=O)N(O)CCCCCN [DFX, Deferoxamine mesylate] | partially reversed | largely reversed | reduced colony formation | partially reversed | largely reversed | reduced colony formation | – | – | – | – | – | – | – | –
CC(=O)CC(=O)CCC(=O)O [succinyl acetone, Succinyl acetone] | largely reversed | did not reverse | strongly suppressed colony formation | largely reversed | did not reverse | strongly suppressed colony formation | effective inhibitor | low toxicity | largely reversed | not very effective | largely reversed | largely reversed | largely reversed | –
Tin (IV) protoporphyrin [SnPP] | – | – | appeared to reduce colony formation | – | – | appeared to reduce colony formation | – | – | – | – | – | – | – | strong inhibitor
